Test results reported in patent US10968236B2, “TYK2 inhibitors and uses thereof” (Nimbus Lakshmi, Inc., priority 2015, dated 2021).
Structures can show the parent of a compound that is named as a salt.

Legend:
[1] = molecular target: JAK2 (Homo sapiens (Human), UniProt O60674); assay: JAK2 activity inhibition assay (radioactive kinase / Caliper assay); type: biochemical
Protocol: (§1) Peptide substrate, [KKSRGDYMTMQIG], (20 μM) is prepared in reaction buffer (20 mM Hepes pH 7.5, 10 mM MgCl2, 1 mM EGTA, 0.02% Brij35, 0.02 mg/mL BSA, 0.1 mM […], 2 mM DTT, 1% DMSO. TYK2 (Invitrogen) kinase is added, followed by compounds in DMSO. 33PATP is added to initiate the reaction in ATP at 10 μM. Kinase reaction is incubated for 120 min at room temp and reactions are spotted onto P81 ion exchange paper (Whatman #3698-915), and then washed extensively in 0.75% phosphoric acid, prior to reading the radioactivity counts. For JAK2 (Invitrogen) kinase assay the peptide substrate poly[Glu:Tyr] (4:1), 0.2 mg/ml is used, in the reaction carried out the same as for TYK2.
(§2) The caliper machine employs an off chip mobility shift assay to detect phosphorylated peptide substrates from kinase assays, using microfluidics technology. The assays are carried out at ATP concentration equivalent to the ATP Km, and at 1 mM ATP. Compounds are serially diluted in DMSO then further diluted in assay buffer (25 mM HEPES, pH 7.5, 0.01% Brij-35, 0.01% Triton, 0.5 mM EGTA). 5 ul of diluted compound was added into wells first, then 10 ul of enzyme mix was added into wells, followed by 10 uL of substrate mix (peptide and ATP in 10 mM MgCl2) to start reaction. Reaction was incubated at 28° C. for 25 min and then added 25 ul stop buffer (100 mM HEPES, 0.015% Brij-35, 50 mM EDTA), followed by reading with Caliper. JAK2 at 1 nM final concentration and TYK2 at 9.75 nM are from Carna, and substrates used are ATP at 20 and 16 uM, respectively. JAK2 assay uses peptide 22 and TYK2 uses peptide 30 (Caliper), each at 3 uM.
(§3) The compound numbers correspond to the compound numbers in Table 1. Compounds having an activity designated as “A” provided an Ki≤0.01 μM; compounds having an activity designated as “B” provided an Ki of 0.01-0.1 μM; compounds having an activity designated as “C” provided an Ki of 0.1-1.0 μM; and compounds having an activity designated as “D” provided an Ki≥1.0 μM.

[2] = molecular target: TYK2 (Homo sapiens (Human), UniProt P29597); assay: Tyk2 activity inhibition assay (radioactive kinase / Caliper assay); type: biochemical
Protocol: as §1, §2, §3

Sequence of JAK2 (O60674 whole entry): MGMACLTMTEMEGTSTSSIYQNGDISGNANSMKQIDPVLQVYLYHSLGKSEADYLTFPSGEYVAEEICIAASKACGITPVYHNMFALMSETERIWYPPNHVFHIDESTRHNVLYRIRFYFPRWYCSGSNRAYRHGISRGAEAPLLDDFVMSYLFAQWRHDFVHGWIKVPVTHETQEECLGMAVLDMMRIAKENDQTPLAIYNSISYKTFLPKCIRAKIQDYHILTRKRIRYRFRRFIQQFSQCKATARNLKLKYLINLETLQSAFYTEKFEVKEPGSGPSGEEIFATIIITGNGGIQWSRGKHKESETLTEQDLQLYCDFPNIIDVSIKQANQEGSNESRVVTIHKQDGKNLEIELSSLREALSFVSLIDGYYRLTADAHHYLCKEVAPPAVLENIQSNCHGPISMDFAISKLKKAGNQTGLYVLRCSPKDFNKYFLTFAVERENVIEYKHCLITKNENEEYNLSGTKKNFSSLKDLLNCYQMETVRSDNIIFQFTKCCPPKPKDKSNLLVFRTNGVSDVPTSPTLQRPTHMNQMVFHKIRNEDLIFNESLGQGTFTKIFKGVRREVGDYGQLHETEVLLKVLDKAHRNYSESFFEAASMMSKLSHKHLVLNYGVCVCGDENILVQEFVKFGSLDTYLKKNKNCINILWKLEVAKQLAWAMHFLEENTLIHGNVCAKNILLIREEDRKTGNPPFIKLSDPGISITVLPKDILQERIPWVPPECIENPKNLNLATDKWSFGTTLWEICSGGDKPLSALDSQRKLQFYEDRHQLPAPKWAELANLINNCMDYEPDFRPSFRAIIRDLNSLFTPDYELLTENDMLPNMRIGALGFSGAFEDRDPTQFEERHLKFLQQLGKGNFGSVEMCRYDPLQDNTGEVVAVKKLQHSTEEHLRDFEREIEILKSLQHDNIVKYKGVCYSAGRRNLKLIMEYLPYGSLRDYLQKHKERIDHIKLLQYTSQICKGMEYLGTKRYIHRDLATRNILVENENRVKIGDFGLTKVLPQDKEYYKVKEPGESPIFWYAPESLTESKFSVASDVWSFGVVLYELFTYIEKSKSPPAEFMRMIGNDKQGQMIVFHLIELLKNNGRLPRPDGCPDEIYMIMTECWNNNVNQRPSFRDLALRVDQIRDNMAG
Sequence of TYK2 (P29597 whole entry): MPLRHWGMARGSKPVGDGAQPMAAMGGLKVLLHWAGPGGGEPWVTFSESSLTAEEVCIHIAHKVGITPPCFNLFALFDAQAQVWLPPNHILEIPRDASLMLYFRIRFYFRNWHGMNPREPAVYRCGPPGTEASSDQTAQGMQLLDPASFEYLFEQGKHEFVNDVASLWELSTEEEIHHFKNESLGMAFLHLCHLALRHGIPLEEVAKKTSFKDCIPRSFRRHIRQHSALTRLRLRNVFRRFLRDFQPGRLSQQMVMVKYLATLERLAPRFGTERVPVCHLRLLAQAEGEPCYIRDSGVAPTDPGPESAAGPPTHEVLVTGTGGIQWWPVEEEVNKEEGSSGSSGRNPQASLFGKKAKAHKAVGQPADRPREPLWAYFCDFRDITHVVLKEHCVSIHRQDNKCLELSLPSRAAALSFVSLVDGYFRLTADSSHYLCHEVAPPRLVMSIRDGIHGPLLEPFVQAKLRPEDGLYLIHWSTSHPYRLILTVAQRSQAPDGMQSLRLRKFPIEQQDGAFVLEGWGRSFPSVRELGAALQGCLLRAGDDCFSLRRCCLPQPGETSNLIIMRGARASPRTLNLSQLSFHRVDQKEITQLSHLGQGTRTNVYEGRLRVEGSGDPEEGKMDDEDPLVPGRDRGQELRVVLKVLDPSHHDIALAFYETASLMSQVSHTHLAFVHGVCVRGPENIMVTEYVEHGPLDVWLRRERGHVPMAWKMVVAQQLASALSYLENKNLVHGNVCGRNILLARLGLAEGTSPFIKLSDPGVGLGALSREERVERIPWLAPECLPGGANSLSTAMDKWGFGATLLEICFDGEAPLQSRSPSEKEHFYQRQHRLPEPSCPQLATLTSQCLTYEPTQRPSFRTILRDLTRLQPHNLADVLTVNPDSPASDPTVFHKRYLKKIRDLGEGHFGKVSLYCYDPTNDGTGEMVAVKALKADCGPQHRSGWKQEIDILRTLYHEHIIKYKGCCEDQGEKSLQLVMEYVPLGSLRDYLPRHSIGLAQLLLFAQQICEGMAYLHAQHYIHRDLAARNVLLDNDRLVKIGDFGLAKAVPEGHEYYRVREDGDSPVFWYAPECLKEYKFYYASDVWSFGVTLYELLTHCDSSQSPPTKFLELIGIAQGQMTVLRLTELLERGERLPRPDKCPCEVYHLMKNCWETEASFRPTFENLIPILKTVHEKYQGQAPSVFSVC

Row | Ki [1] | Ki [2] | Compound
1 | 10 to 100 nM | – | CCNC(=O)[C@](O)(CC(F)(F)F)c1ccc(Nc2nc(-c3c(F)cccc3F)nc3c2C(=O)NC3)cc1 [Compound I-27, (S)-2-(4-((2-(2,6-difluorophenyl)-5-oxo-6,7-dihydro-5H-pyrrolo[3,4-d]pyrimidin-4-yl)amino)phenyl)-N-ethyl-4,4,4-trifluoro-2-hydroxybutanamide]
2 | ≤ 10 nM | ≤ 10 nM | N#Cc1cccc(F)c1-c1cc(Nc2ccc(N3CC[C@@]4(C[C@@H](O)CO4)C3)cn2)c2c(n1)CNC2=O [Compound I-90]
3 | 100 to 1000 nM | 10 to 100 nM | O=C1NCc2nc(-n3c(F)cccc3=O)cc(Nc3ccc(N4CCOCC4)cn3)c21 [Compound I-56, 2-(6-fluoro-2-oxopyridin-1(2H)-yl)-4-((5-morpholinopyridin-2-yl)amino)-6,7-dihydro-5H-pyrrolo[3,4-b]pyridin-5-one]
4 | 100 to 1000 nM | – | CCNC(=O)[C@@](O)(CC(F)(F)F)c1ccc(Nc2nc(-c3c(F)cccc3F)nc3c2C(=O)NC3)cc1 [Compound I-28, (R)-2-(4-((2-(2,6-difluorophenyl)-5-oxo-6,7-dihydro-5H-pyrrolo[3,4-d]pyrimidin-4-yl)amino)phenyl)-N-ethyl-4,4,4-trifluoro-2-hydroxybutanamide]
5 | 100 to 1000 nM | ≤ 10 nM | C[C@](O)(C(=O)O)c1ccc(Nc2nc(-c3c(F)cccc3F)nc3c2C(=O)NC3)cc1 [Compound I-8, (R)-2-(4-((2-(2,6-difluorophenyl)-5-oxo-6,7-dihydro-5H-pyrrolo[3,4-d]pyrimidin-4-yl)amino)phenyl)-2-hydroxypropanoic acid]
6 | 100 to 1000 nM | – | C[C@@](O)(c1ccc(Nc2nc(-c3c(F)cccc3F)nc3c2C(=O)NC3)cc1)C(F)(F)F [Compound I-35, (R)-2-(2,6-difluorophenyl)-4-((4-(1,1,1-trifluoro-2-hydroxy-propan-2-yl)phenyl)amino)-6,7-dihydro-5H-pyrrolo[3,4-d]pyrimidin-5-one]
7 | 10 to 100 nM | ≤ 10 nM | O=C1NCc2nc(-c3c(F)cccc3F)cc(Nc3ccc4cc[nH]c4n3)c21 [Compound I-21, 4-((1H-pyrrolo[2,3-b]pyridin-6-yl)amino)-2-(2,6-difluoro-phenyl)-6,7-dihydro-5H-pyrrolo[3,4-b]pyridin-5-one]
8 | 100 to 1000 nM | ≤ 10 nM | CC1(C)COc2cc(Nc3nc(-c4c(F)cccc4F)nc4c3C(=O)NC4)ccc21 [Compound I-23, 2-(2,6-difluorophenyl)-4-((3,3-dimethyl-2,3-dihydrobenzofuran-6-yl)amino)-6,7-dihydro-5H-pyrrolo[3,4-d]pyrimidin-5-one]
9 | 100 to 1000 nM | ≤ 10 nM | CC1(C)Cc2ccc(Nc3nc(-c4c(F)cccc4F)nc4c3C(=O)NC4)cc2N1 [Compound I-3, 2-(2,6-difluorophenyl)-4-((2,2-dimethylindolin-6-yl)amino)-6,7-dihydro-5H-pyrrolo[3,4-d]pyrimidin-5-one]
10 | 10 to 100 nM | ≤ 10 nM | O=C1NCc2nc(-c3c(F)cccc3F)cc(Nc3ccc(C(=O)N4CCOC5(CC5)C4)cc3)c21 [Compound I-50, 4-((4-(4-oxa-7-azaspiro[2.5]octane-7-carbonyl)phenyl)amino)-2-(2,6-difluorophenyl)-6,7-dihydro-5H-pyrrolo[3,4-b]pyridin-5-one]
11 | 10 to 100 nM | – | O=C1NCc2nc(-c3c(F)cccc3F)nc(Nc3ccc([C@@H](O)C(F)(F)F)cc3)c21 [Compound I-31, (R)-2-(2,6-difluorophenyl)-4-((4-(2,2,2-trifluoro-1-hydro-xyethyl)phenyl)amino)-6,7-dihydro-5H-pyrrolo[3,4-d]pyrimidin-5-one]
12 | 100 to 1000 nM | ≤ 10 nM | C[C@@](N)(C(=O)O)c1ccc(Nc2nc(-c3c(F)cccc3F)nc3c2C(=O)NC3)cc1 [Compound I-45, (S)-2-amino-2-(4-((2-(2,6-difluorophenyl)-5-oxo-6,7-dihydro-5H-pyrrolo[3,4-d]pyrimidin-4-yl)amino)phenyl)propanoic acid hydrochloride]
13 | 100 to 1000 nM | ≤ 10 nM | CCNC(=O)C(O)(CC(F)(F)F)c1ccc(Nc2nc(-c3c(F)cccc3F)nc3c2C(=O)NC3)cc1 (stereo not shown) [Compound I-26, 2-(4-((2-(2,6-difluorophenyl)-5-oxo-6,7-dihydro-5H-pyrrolo[3,4-d]pyrimidin-4-yl)amino)phenyl)-N-ethyl-4,4,4-trifluoro-2-hydroxybutanamide]
14 | 10 to 100 nM | ≤ 10 nM | N#Cc1cccc(F)c1-c1cc(Nc2ccc(N3CC[C@]4(C[C@@H](O)CO4)C3)cn2)c2c(n1)CNC2=O [Compound I-92, 3-fluoro-2-(4-((5-((3R,5S)-3-hydroxy-1-oxa-7-azaspiro[4.4]nonan-7-yl)pyridin-2-yl)amino)-5-oxo-6,7-dihydro-5H-pyrrolo[3,4-b]pyridin-2-yl)benzonitrile]
15 | 100 to 1000 nM | ≤ 10 nM | O=C1NCc2nc(-c3c(F)cccc3F)nc(Nc3ccc(C(O)C(F)(F)F)cc3)c21 (stereo not shown) [Compound I-29, 2-(2,6-difluorophenyl)-4-((4-(2,2,2-trifluoro-1-hydroxy-ethyl)phenyl)amino)-6,7-dihydro-5H-pyrrolo[3,4-d]pyrimidin-5-one]
16 | 100 to 1000 nM | ≤ 10 nM | C[C@@](O)(C(=O)O)c1ccc(Nc2nc(-c3c(F)cccc3F)nc3c2C(=O)NC3)cc1 [Compound I-7, (S)-2-(4-((2-(2,6-difluorophenyl)-5-oxo-6,7-dihydro-5H-pyrrolo[3,4-d]pyrimidin-4-yl)amino)phenyl)-2-hydroxypropanoic acid]
17 | 10 to 100 nM | ≤ 10 nM | CN1CCc2cc(Nc3cc(-c4c(F)cccc4F)nc4c3C(=O)NC4)ccc2C1=O [Compound I-64, 6-((2-(2,6-difluorophenyl)-5-oxo-6,7-dihydro-5H-pyrrolo[3,4-b]pyridin-4-yl)amino)-2-methyl-3,4-dihydroisoquinolin-1 (2H)-one]
18 | 10 to 100 nM | – | C[C@](O)(c1ccc(Nc2cc(-c3c(F)cccc3F)nc3c2C(=O)NC3)cc1)C(F)(F)F [Compound I-43, (S)-2-(2,6-difluorophenyl)-4-((4-(1,1,1-trifluoro-2-hydroxypropan-2-yl)phenyl)amino)-6,7-dihydro-5H-pyrrolo[3,4-b]pyridin-5-one]
19 | 100 to 1000 nM | – | C[C@@](O)(c1ccc(Nc2cc(-c3c(F)cccc3F)nc3c2C(=O)NC3)cc1)C(F)(F)F [Compound I-44, (R)-2-(2,6-difluorophenyl)-4-((4-(1,1,1-trifluoro-2-hydroxy-nronan-2-yl)phenyl)amino)-6,7-dihydro-5H-pyrrolo[3,4-b]pyridin-5-one]
20 | 100 to 1000 nM | – | O=C1NCc2nc(-c3c(F)cccc3F)nc(Nc3ccc([C@H](O)C(F)(F)F)cc3)c21 [Compound I-30, (S)-2-(2,6-difluorophenyl)-4-((4-(2,2,2-trifluoro-1-hydroxyethyl)phenyl)amino)-6,7-dihydro-5H-pyrrolo[3,4-d]pyrimidin-5-one]
21 | – | 100 to 1000 nM | CN1C(=O)[C@](C)(c2ccc(Nc3nc(-c4c(F)cccc4F)nc4c3C(=O)NC4)cc2)Oc2ccccc21 [Compound I-40, (S)-2-(4-((2-(2,6-difluorophenyl)-5-oxo-6,7-dihydro-5H-pyrrolo[3,4-d]pyrimidin-4-yl)amino)phenyl)-2,4-dimethyl-2H-benzo[b][1,4]oxazin-3(4H)-one]
